Data: patent publication US20100234366A1, “Use of Strobilurins for the Treatment of Disorders of Iron Metabolism” (BSF SE, priority 2006, published 2010)

Columns and labels:
[1] = tested on: male Wistar rats; experiment: Treatment of rats with dimoxystrobin (iron concentration in the blood); assay type: in vivo, rat; conditions: for average iron level in the blood: fourth group: 6-week old rats; for average iron level in the blood / blood level of iron: 500 ppm each day via the food; for blood level of iron: second group: 3-week old rats; for level of iron in the blood: sixth group: 3-week old rats, 250 ppm each day
Protocol: 10 g of the phenylacetic acid derivative dimoxystrobin were prepared by known methods and purified by conventional methods.
Both 3-week old and 6-week old male Wistar rats (see Example 1) were employed for the subsequent experiments. These rats were divided into 6 equally sized groups of 10 rats. The rats were housed under conventional conditions.
The first group consisted of 3-week old rats. They received only the regular food over the entire period of the experiment.
The second group likewise consisted of 3-week old rats. The animals received 500 ppm (milligrams of test substance per […]) of dimoxystrobin each day. It was supplied via the food.
The third group consisted of 6-week old rats which received no active ingredient via the food.
The fourth group consisted of 6-week old rats which received 500 ppm dimoxystrobin via the food each day.
The fifth group consisted of 3-week old rats which received no active ingredient.
The sixth group consisted of 3-week old rats which received 250 ppm of the test substance dimoxystrobin each day.
The iron concentrations in the blood were determined both after 2 days and after 7 days.

[2] = tested on: male Wistar rats; experiment: Treatment of rats with an elevated iron level (iron level in the blood); assay type: in vivo, rat
Protocol: Two grams of the phenylacetic acid derivative orysastrobin were prepared by known methods and purified by conventional methods.
Six-week old male Wistar rats (Elévage Janvier, France) were employed for the experiments. These rats, which were housed under conventional conditions (20-24° C., 30-70% humidity, 12 hours illumination, standard food) were divided into five groups of equal size.
The first group was treated with no iron compound and no strobilurin derivative.
The second group was treated only with 200 mg of the phenylacetic acid derivative orysastrobin (as suspension by gavage).
The third group received a single intramuscular injection of 50 mg/kg of an iron(III) hydroxide-dextran complex (Myofer® 100), 1 ml of the injection solution comprising 320 mg of the complex (equivalent to 195 mg of Fe(OH)3).
The fourth group received both an injection of 50 mg/kg of the iron complex and, after 6 hours, a dose of 200 mg/kg of the strobilurin derivative by gavage.
The fifth group received both an injection of 50 mg/kg of the iron complex and, after 24 hours, a dose of 200 mg/kg of the strobilurin derivative by gavage.
24 hours before the start of the test, a blood sample was taken from all the rats, in each case at 8 o'clock in the morning of the preceding day, and was analyzed. The iron complex and/or the strobilurin derivative was administered at 8 o'clock in the morning of the day of the experiment. Further blood samples were taken from all the rats at 2 o'clock in the afternoon of the day of the experiment and at 8 o'clock in the morning of the next day, and were analyzed.

[3] = tested on: HFE mice; experiment: Treatment of HFE mice (serum iron level, model of hemochromatosis); assay type: in vivo, mouse; conditions: for reduction of serum iron concentration compared with control group: 2000 ppm in the food, 7 days
Protocol: This genetic defect leads to HFE mice having an elevated iron level in the liver, and this can serve as model of hemochromatosis disorder in humans. The HFE mice employed in the experiments were 12 to 23 weeks old (obtained from University College London, Department of Biochemistry and Molecular Biology).
The housing conditions of the mice corresponded to typical standards as have also been described in Example 1. In the experiments, investigations were carried out both with male HFE mice and with female HFE mice. In each case one group of animals received over a period of 7 days 2000 ppm of the phenylacetic acid derivative orysastrobin each day. The product was supplied freely in the food. The comparison group received only the regular food.

SMILES	average iron level in the blood ([1]; after 2 days, control 43.1) [µmol/L]	average iron level in the blood ([1]; after 7 days, control 44.0) [µmol/L]	finding at the duodenum ([1]; rats treated with dimoxystrobin, occurred only in the adult animals)	blood level of iron ([1]; after 2 days, control 92.6) [µmol/L]	blood level of iron ([1]; after 7 days) [µmol/L]	level of iron in the blood ([1]; after 2 days, control 96.7) [µmol/L]	level of iron in the blood ([1]; after 7 days, control 96.1) [µmol/L]	iron level in the blood ([2]; fifth group: 50 mg/kg iron complex i.m. plus 200 mg/kg orysastrobin by gavage, after 24 hours, iron only 147.8) [µmol/L]	iron level in the blood ([2]; fourth group: 50 mg/kg iron complex i.m. plus 200 mg/kg orysastrobin by gavage, after 6 hours, iron only 153.9) [µmol/L]	iron level in the blood ([2]; second group: only 200 mg orysastrobin by gavage, no iron, 6 hours after administration, untreated control 47.8) [µmol/L]	iron level in the blood ([2]; second group: only 200 mg orysastrobin by gavage, no iron, after 24 hours, untreated control 47.8) [µmol/L]	iron level (serum) ([3]; female HFE mice, 2000 ppm each day in the food, after one week, control 51.2) [µmol/L]	reduction of serum iron concentration compared with control group ([3]; female HFE mice)	serum iron level ([3]; male HFE mice, 2000 ppm each day in the food, after one week, control 40.06) [µmol/L]	reduction of serum iron concentration compared with control group ([3]; male HFE mice)
CNC(=O)/C(=N/OC)c1ccccc1COc1cc(C)ccc1C [dimoxystrobin, (E)-2(methoximino)-N-methyl-2-[α-(2,5-xylyloxy)-o-tolyl]acetamide]	34.2	36	distinct thickening of the duodenum	35.8	33.6	56	59.7	–	–	–	–	–	–	–	–
CNC(=O)/C(=N/OC)c1ccccc1CO/N=C(C)/C(=N/OC)C(/C)=N/OC [orysastrobin, (2E)-2(methoximino)-2-[2-[(3E,5E,6E)-5-(methoximino)-4,6-dimethyl-2 , 8-dioxa-3,7-diazanona-3,6-dien-1-yl]phenyl]-N-methylacetamide]	–	–	–	–	–	–	–	91.9	83.1	20.6	26.3	36.66	about 28%	30.62	about 24%
